Data from ChEMBL document CHEMBL3822442, “Synthesis and Pharmacological Characterization of Novel Glucagon-like Peptide-2 (GLP-2) Analogues with Low Systemic Clearance” (J Med Chem, 2016).

Columns and labels:
[1] = biological target: Glucagon-like peptide 1 receptor (Homo sapiens, UniProt P43220); assay: Agonist activity at human GLP1R expressed in HEK293 cells after 5 hrs by luciferase reporter gene assay; type: cell-based
[2] = biological target: T1, Glucagon-like peptide 2 receptor (Homo sapiens, UniProt O95838); assay: Agonist activity at human GLP2R expressed in HEK293 cells after 5 hrs by luciferase reporter gene assay; type: cell-based
T1 sequence (O95838 whole entry): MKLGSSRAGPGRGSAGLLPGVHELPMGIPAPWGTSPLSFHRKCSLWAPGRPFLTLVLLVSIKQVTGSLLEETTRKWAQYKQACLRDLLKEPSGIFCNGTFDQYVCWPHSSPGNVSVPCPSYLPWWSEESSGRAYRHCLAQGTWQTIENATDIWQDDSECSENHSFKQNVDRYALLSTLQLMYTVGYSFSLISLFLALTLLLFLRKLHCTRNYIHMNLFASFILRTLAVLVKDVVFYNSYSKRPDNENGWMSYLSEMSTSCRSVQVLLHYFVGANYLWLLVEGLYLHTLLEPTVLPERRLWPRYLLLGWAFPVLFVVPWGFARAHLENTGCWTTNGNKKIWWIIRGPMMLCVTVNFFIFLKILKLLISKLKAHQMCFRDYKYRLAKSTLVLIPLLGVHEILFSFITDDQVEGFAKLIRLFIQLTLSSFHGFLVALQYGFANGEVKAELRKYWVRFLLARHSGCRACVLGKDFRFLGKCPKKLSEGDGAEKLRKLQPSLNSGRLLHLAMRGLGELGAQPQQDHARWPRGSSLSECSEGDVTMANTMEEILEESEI

Chain of Glucagon-like peptide 1 receptor (P43220 whole entry): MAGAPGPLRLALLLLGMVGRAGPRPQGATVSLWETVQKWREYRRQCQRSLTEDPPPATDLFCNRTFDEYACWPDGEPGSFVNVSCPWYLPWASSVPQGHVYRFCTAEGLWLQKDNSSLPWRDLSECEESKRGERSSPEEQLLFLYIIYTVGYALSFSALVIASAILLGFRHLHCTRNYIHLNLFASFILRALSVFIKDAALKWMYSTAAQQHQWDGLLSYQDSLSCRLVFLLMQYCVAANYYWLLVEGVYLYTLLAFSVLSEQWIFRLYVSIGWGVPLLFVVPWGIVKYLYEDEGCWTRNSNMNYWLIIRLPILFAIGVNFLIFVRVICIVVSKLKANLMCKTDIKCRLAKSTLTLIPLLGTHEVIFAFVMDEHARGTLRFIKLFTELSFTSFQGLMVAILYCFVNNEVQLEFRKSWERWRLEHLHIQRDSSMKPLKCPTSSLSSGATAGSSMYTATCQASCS

Q: How did the EC50 [1] turn out when CCCC[C@H](NC(=O)[C@H](CCC(=O)O)NC(=O)[C@H](CC(=O)O)NC(=O)[C@H](CO)NC(=O)[C@H](Cc1ccccc1)NC(=O)[C@H](CO)NC(=O)CNC(=O)[C@H](CC(=O)O)NC(=O)CNC(=O)[C@@H](N)Cc1cnc[nH]1)C(=O)N[C@@H](CC(N)=O)C(=O)N[C@H](C(=O)N[C@H](C(=O)N[C@@H](CC(C)C)C(=O)N[C@@H](CC(=O)O)C(=O)N[C@@H](Cc1cccc2ccccc12)C(=O)N[C@@H](CC(C)C)C(=O)N[C@@H](C)C(=O)N[C@@H](C)C(=O)N[C@@H](CCCNC(=N)N)C(=O)N[C@@H](CC(=O)O)C(=O)N[C@@H](Cc1ccccc1)C(=O)N[C@H](C(=O)N[C@@H](CC(N)=O)C(=O)N[C@@H](Cc1c[nH]c2ccccc12)C(=O)N[C@@H](CC(C)C)C(=O)N[C@H](C(=O)N[C@@H](CCC(N)=O)C(=O)N[C@H](C(=O)N[C@@H](CCCCN)C(N)=O)[C@@H](C)O)[C@@H](C)CC)[C@@H](C)CC)[C@@H](C)CC)[C@@H](C)O was run?
A: Its EC50 is > 1000 nM.

Q: And the EC50 [2]?
A: Its EC50 is 0.19 nM.

Q: Which results are given for CCCC[C@H](NC(=O)[C@H](CCC(=O)O)NC(=O)[C@H](CC(=O)O)NC(=O)[C@H](CO)NC(=O)[C@H](Cc1ccccc1)NC(=O)[C@H](CO)NC(=O)CNC(=O)[C@H](CC(=O)O)NC(=O)CNC(=O)[C@@H](N)Cc1c[nH]cn1)C(=O)N[C@@H](CC(N)=O)C(=O)N[C@H](C(=O)N[C@H](C(=O)N[C@@H](CC(C)C)C(=O)N[C@@H](CC(=O)O)C(=O)N[C@@H](Cc1ccc(N)cc1)C(=O)N[C@@H](CC(C)C)C(=O)N[C@@H](C)C(=O)N[C@@H](C)C(=O)N[C@@H](CCCNC(=N)N)C(=O)N[C@@H](CC(=O)O)C(=O)N[C@@H](Cc1ccccc1)C(=O)N[C@H](C(=O)N[C@@H](CC(N)=O)C(=O)N[C@@H](Cc1c[nH]c2ccccc12)C(=O)N[C@@H](CC(C)C)C(=O)N[C@H](C(=O)N[C@@H](CCC(N)=O)C(=O)N[C@H](C(=O)N[C@@H](CCCCN)C(N)=O)[C@@H](C)O)[C@@H](C)CC)[C@@H](C)CC)[C@@H](C)CC)[C@@H](C)O?
A: EC50 [1]: > 1000 nM; EC50 [2]: 0.13 nM

Q: Which EC50 [1] does the source give for CCCC[C@H](NC(=O)[C@H](CCC(=O)O)NC(=O)[C@H](CC(=O)O)NC(=O)[C@H](CO)NC(=O)[C@H](Cc1ccccc1)NC(=O)[C@H](CO)NC(=O)CNC(=O)[C@H](CC(=O)O)NC(=O)CNC(=O)[C@@H](N)Cc1cnc[nH]1)C(=O)N[C@@H](CC(N)=O)C(=O)N[C@H](C(=O)N[C@H](C(=O)N[C@@H](CC(C)C)C(=O)N[C@@H](CC(=O)O)C(=O)N[C@@H](CC1CCCCC1)C(=O)N[C@@H](CC(C)C)C(=O)N[C@@H](C)C(=O)N[C@@H](C)C(=O)N[C@@H](CCCNC(=N)N)C(=O)N[C@@H](CC(=O)O)C(=O)N[C@@H](Cc1ccccc1)C(=O)N[C@H](C(=O)N[C@@H](CC(N)=O)C(=O)N[C@@H](Cc1c[nH]c2ccccc12)C(=O)N[C@@H](CC(C)C)C(=O)N[C@H](C(=O)N[C@@H](CCC(N)=O)C(=O)N[C@H](C(=O)N[C@@H](CCCCN)C(N)=O)[C@@H](C)O)[C@@H](C)CC)[C@@H](C)CC)[C@@H](C)CC)[C@@H](C)O here?
A: The EC50 was > 1000 nM.

Q: And the EC50 [2]?
A: The EC50 was 0.1 nM.

Q: With CCCC[C@H](NC(=O)[C@H](CCC(=O)O)NC(=O)[C@H](CC(=O)O)NC(=O)[C@H](CO)NC(=O)[C@H](Cc1ccccc1)NC(=O)[C@H](CO)NC(=O)CNC(=O)[C@H](CC(=O)O)NC(=O)CNC(=O)[C@@H](N)Cc1cnc[nH]1)C(=O)N[C@H](CC(C)C)C(=O)N[C@H](C(=O)N[C@H](C(=O)N[C@@H](CC(C)C)C(=O)N[C@@H](CC(=O)O)C(=O)N[C@@H](CC(N)=O)C(=O)N[C@@H](CC(C)C)C(=O)N[C@@H](C)C(=O)N[C@@H](C)C(=O)N[C@@H](CCCNC(=N)N)C(=O)N[C@@H](CC(=O)O)C(=O)N[C@@H](Cc1ccccc1)C(=O)N[C@H](C(=O)N[C@@H](CC(N)=O)C(=O)N[C@@H](Cc1c[nH]c2ccccc12)C(=O)N[C@@H](CC(C)C)C(=O)N[C@H](C(=O)N[C@@H](CCC(N)=O)C(=O)N[C@H](C(=O)N[C@@H](CCCCN)C(N)=O)[C@@H](C)O)[C@@H](C)CC)[C@@H](C)CC)[C@@H](C)CC)[C@@H](C)O as the molecule, how does the EC50 [1] read?
A: Its EC50 is > 1000 nM.

Q: And the EC50 [2]?
A: The EC50 was 0.31 nM.

Q: With CCCC[C@H](NC(=O)[C@H](CCC(=O)O)NC(=O)[C@H](CC(=O)O)NC(=O)[C@H](CO)NC(=O)[C@H](Cc1ccccc1)NC(=O)[C@H](CO)NC(=O)CNC(=O)[C@H](CC(=O)O)NC(=O)CNC(=O)[C@@H](N)Cc1cnc[nH]1)C(=O)N[C@H](Cc1ccccc1)C(=O)N[C@H](C(=O)N[C@H](C(=O)N[C@@H](CC(C)C)C(=O)N[C@@H](CC(=O)O)C(=O)N[C@@H](CC(C)C)C(=O)N[C@@H](CC(C)C)C(=O)N[C@@H](C)C(=O)N[C@@H](C)C(=O)N[C@@H](CCCNC(=N)N)C(=O)N[C@@H](CC(=O)O)C(=O)N[C@@H](Cc1ccccc1)C(=O)N[C@H](C(=O)N[C@@H](CC(N)=O)C(=O)N[C@@H](Cc1c[nH]c2ccccc12)C(=O)N[C@@H](CC(C)C)C(=O)N[C@H](C(=O)N[C@@H](CCC(N)=O)C(=O)N[C@H](C(=O)N[C@@H](CCCCN)C(=O)N[C@H](C(=O)N[C@H](C(=O)N[C@@H](CC(=O)O)C(=O)NCCOCCOCCOCCOCCC(N)=O)[C@@H](C)O)[C@@H](C)CC)[C@@H](C)O)[C@@H](C)CC)[C@@H](C)CC)[C@@H](C)CC)[C@@H](C)O as the molecule, how does the EC50 [1] read?
A: Its EC50 is > 1000 nM.

Q: And the EC50 [2]?
A: The EC50 was 0.03 nM.

Q: For CCCC[C@H](NC(=O)[C@H](CCC(=O)O)NC(=O)[C@H](CC(=O)O)NC(=O)[C@H](CO)NC(=O)[C@H](Cc1ccccc1)NC(=O)[C@H](CO)NC(=O)CNC(=O)[C@H](CC(=O)O)NC(=O)CNC(=O)[C@@H](N)Cc1cnc[nH]1)C(=O)N[C@H](Cc1cccs1)C(=O)N[C@H](C(=O)N[C@H](C(=O)N[C@@H](CC(C)C)C(=O)N[C@@H](CC(=O)O)C(=O)N[C@@H](Cc1ccccc1)C(=O)N[C@@H](CC(C)C)C(=O)N[C@@H](C)C(=O)N[C@@H](C)C(=O)N[C@@H](CCCNC(=N)N)C(=O)N[C@@H](CC(=O)O)C(=O)N[C@@H](Cc1ccccc1)C(=O)N[C@H](C(=O)N[C@@H](CC(N)=O)C(=O)N[C@@H](Cc1c[nH]c2ccccc12)C(=O)N[C@@H](CC(C)C)C(=O)N[C@H](C(=O)N[C@@H](CCC(N)=O)C(=O)N[C@H](C(=O)N[C@@H](CCCCN)C(N)=O)[C@@H](C)O)[C@@H](C)CC)[C@@H](C)CC)[C@@H](C)CC)[C@@H](C)O, which EC50 [1] is on record?
A: The EC50 was > 1000 nM.

Q: What about the EC50 [2] of the same molecule?
A: Its EC50 is 0.08 nM.

Q: What does the source list for CCCC[C@H](NC(=O)[C@H](CCC(=O)O)NC(=O)[C@H](CC(=O)O)NC(=O)[C@H](CO)NC(=O)[C@H](Cc1ccccc1)NC(=O)[C@H](CO)NC(=O)CNC(=O)[C@H](CC(=O)O)NC(=O)CNC(=O)[C@@H](N)Cc1cnc[nH]1)C(=O)N[C@H](Cc1ccc(Cl)cc1)C(=O)N[C@H](C(=O)N[C@H](C(=O)N[C@@H](CC(C)C)C(=O)N[C@@H](CC(=O)O)C(=O)N[C@@H](CC(N)=O)C(=O)N[C@@H](CC(C)C)C(=O)N[C@@H](C)C(=O)N[C@@H](C)C(=O)N[C@@H](CCCNC(=N)N)C(=O)N[C@@H](CC(=O)O)C(=O)N[C@@H](Cc1ccccc1)C(=O)N[C@H](C(=O)N[C@@H](CC(N)=O)C(=O)N[C@@H](Cc1c[nH]c2ccccc12)C(=O)N[C@@H](CC(C)C)C(=O)N[C@H](C(=O)N[C@@H](CCC(N)=O)C(=O)N[C@H](C(=O)N[C@@H](CCCCN)C(N)=O)[C@@H](C)O)[C@@H](C)CC)[C@@H](C)CC)[C@@H](C)CC)[C@@H](C)O?
A: EC50 [1]: 60 nM; EC50 [2]: 0.09 nM

Q: Which results are given for CCCC[C@H](NC(=O)[C@H](CCC(=O)O)NC(=O)[C@H](CC(=O)O)NC(=O)[C@H](CO)NC(=O)[C@H](Cc1ccccc1)NC(=O)[C@H](CO)NC(=O)CNC(=O)[C@H](CC(=O)O)NC(=O)CNC(=O)[C@@H](N)Cc1cnc[nH]1)C(=O)N[C@H](Cc1ccccc1)C(=O)N[C@H](C(=O)N[C@H](C(=O)N[C@@H](CC(C)C)C(=O)N[C@@H](CC(=O)O)C(=O)N[C@@H](CC(C)C)C(=O)N[C@@H](CC(C)C)C(=O)N[C@@H](C)C(=O)N[C@@H](C)C(=O)N[C@@H](CCCNC(=N)N)C(=O)N[C@@H](CC(=O)O)C(=O)N[C@@H](Cc1ccccc1)C(=O)N[C@H](C(=O)N[C@@H](CC(N)=O)C(=O)N[C@@H](Cc1c[nH]c2ccccc12)C(=O)N[C@@H](CC(C)C)C(=O)N[C@H](C(=O)N[C@@H](CCC(N)=O)C(=O)N[C@H](C(=O)N[C@@H](CCCCN)C(=O)N[C@H](C(=O)N[C@H](C(=O)N[C@@H](CC(=O)O)C(=O)NCC)[C@@H](C)O)[C@@H](C)CC)[C@@H](C)O)[C@@H](C)CC)[C@@H](C)CC)[C@@H](C)CC)[C@@H](C)O?
A: EC50 [1]: > 1000 nM; EC50 [2]: 0.05 nM

Q: For CCCC[C@H](NC(=O)[C@H](CCC(=O)O)NC(=O)[C@H](CC(=O)O)NC(=O)[C@H](CO)NC(=O)[C@H](Cc1ccccc1)NC(=O)[C@H](CO)NC(=O)CNC(=O)[C@H](CC(=O)O)NC(=O)CNC(=O)[C@@H](N)Cc1c[nH]cn1)C(=O)N[C@@H](CC(N)=O)C(=O)N[C@H](C(=O)N[C@H](C(=O)N[C@@H](CC(C)C)C(=O)N[C@@H](CC(=O)O)C(=O)N[C@@H](Cc1ccc2ccccc2c1)C(=O)N[C@@H](CC(C)C)C(=O)N[C@@H](C)C(=O)N[C@@H](C)C(=O)N[C@@H](CCCNC(=N)N)C(=O)N[C@@H](CC(=O)O)C(=O)N[C@@H](Cc1ccccc1)C(=O)N[C@H](C(=O)N[C@@H](CC(N)=O)C(=O)N[C@@H](Cc1c[nH]c2ccccc12)C(=O)N[C@@H](CC(C)C)C(=O)N[C@H](C(=O)N[C@@H](CCC(N)=O)C(=O)N[C@H](C(=O)N[C@@H](CCCCN)C(N)=O)[C@@H](C)O)[C@@H](C)CC)[C@@H](C)CC)[C@@H](C)CC)[C@@H](C)O, which EC50 [1] is on record?
A: Its EC50 is > 1000 nM.

Q: And the EC50 [2]?
A: The EC50 was 0.13 nM.
